Laboratory results published in patent US20060069132A1, “Azolecarboxamide herbicides” (priority 2004, published 2006).

Tests used:
barnyardgrass [1] = assay: Test B pre-/postemergence herbicide test; assay type: in vivo, Echinochloa crus-galli; conditions: for Plant response rating, Barnyardgrass / Plant response rating (0 to 100 scale), Barnyardgrass: preemergence
Procedure, shortened: (§1)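 Seeds were planted and treated preemergence with compounds formulated in a non-phytotoxic solvent mixture containing surfactant, while plants at the 1- to 4-leaf stage (2 to 18 cm) received postemergence sprays. Flooded paddy plants were grown to the 2-leaf stage. After 13 to 15 days in a greenhouse, injury was visually rated 0–100 against untreated controls.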

cocklebur = assay: Test B pre-/postemergence herbicide test; assay type: in vivo, Xanthium strumarium; conditions: for Plant response rating, Cocklebur / Plant response rating (0 to 100 scale), Cocklebur: preemergence
Procedure, shortened: as §1

corn = assay: Test B pre-/postemergence herbicide test; assay type: in vivo, Zea mays; conditions: for Plant response rating, Corn / Plant response rating (0 to 100 scale), Corn: preemergence
Procedure, shortened: (§2)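 Test chemicals in a non-phytotoxic solvent mixture with surfactant were applied preemergence to seeded species and postemergence to plants 2-18 cm tall (1- to 4-leaf stage); rice and barnyardgrass were also tested in a flooded paddy at the 2-leaf stage. Visual rating versus controls after 13-15 days in greenhouse, scale 0 (no effect) to 100 (complete control).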

giant foxtail = assay: Test B pre-/postemergence herbicide test; assay type: in vivo, Setaria faberi; conditions: for Plant response rating, Foxtail, Giant / Plant response rating (0 to 100 scale), Foxtail, Giant: preemergence
Procedure, shortened: as §2

lambsquarters = assay: Test B pre-/postemergence herbicide test; assay type: in vivo, Chenopodium album; conditions: for Plant response rating, Lambsquarters / Plant response rating (0 to 100 scale), Lambsquarters: preemergence
Procedure, shortened: as §2

morningglory = assay: Test B pre-/postemergence herbicide test; assay type: in vivo, Ipomoea coccinea; conditions: for Plant response rating, Morningglory / Plant response rating (0 to 100 scale), Morningglory: preemergence
Procedure, shortened: as §1

pigweed = assay: Test B pre-/postemergence herbicide test; assay type: in vivo, Amaranthus retroflexus; conditions: for Plant response rating, Pigweed / Plant response rating (0 to 100 scale), Pigweed: preemergence
Procedure, shortened: as §2

velvetleaf = assay: Test B pre-/postemergence herbicide test; assay type: in vivo, Abutilon theophrasti; conditions: for Plant response rating, Velvetleaf / Plant response rating (0 to 100 scale), Velvetleaf: preemergence
Procedure, shortened: as §2

blackgrass = assay: Test B postemergence herbicide test; assay type: in vivo, Alopecurus myosuroides
Procedure, shortened: (§3)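 Postemergence plants were sprayed with formulated test chemicals at 2 to 18 cm height (1- to 4-leaf stage); paddy species were grown to the 2-leaf stage. After 13 to 15 days in a greenhouse, injury was rated visually against untreated controls on a 0–100 scale (0 = no effect, 100 = complete control).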

wheat = assay: Test B postemergence herbicide test; assay type: in vivo, Triticum aestivum; design: key to Wheat plant response rating: 0 = no effect, 100 = complete control
Procedure, shortened: (§4)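 Scale 0–100: zero equals no visible effect, 100 complete control, judged by eye relative to controls. Timing: 13 to 15 days in greenhouse post-treatment. Growth stage at spraying: two leaves (paddy) or one to four leaves, 2–18 cm (postemergence).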

wild oat = assay: Test B postemergence herbicide test; assay type: in vivo, Avena fatua
Procedure, shortened: as §4

rice = assay: Test B flooded paddy test; assay type: in vivo, Oryza sativa; conditions: 1000 g ai/ha, scale 0 to 100 (0 no effect, 100 complete control)
Procedure, shortened: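 Paddy species grown to the 2-leaf stage under flooding; blackgrass sprayed postemergence at 2–18 cm (1- to 4-leaf stage). Plants kept in a greenhouse for 13 to 15 days, then visually rated against controls on 0 (no effect) to 100 (complete control).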

[2] = system: small flower umbrella sedge; assay: Test B flooded paddy test; assay type: in vivo, Cyperus difformis; conditions: 1000 g ai/ha, scale 0 to 100 (0 no effect, 100 complete control)
Procedure, shortened: as §3

ducksalad = assay: Test B flooded paddy test; assay type: in vivo, Heteranthera limosa; conditions: 1000 g ai/ha, scale 0 to 100 (0 no effect, 100 complete control)
Procedure, shortened: as §3

barnyardgrass [3] = assay: Test B flooded paddy test; assay type: in vivo, Echinochloa crus-galli; conditions: 1000 g ai/ha, scale 0 to 100 (0 no effect, 100 complete control)
Procedure, shortened: as §3

[4] = 500 g ai/ha, visual rating 0-100, 0 no effect, 100 complete control
[5] = postemergence, 125 g ai/ha, visual rating, scale 0 (no effect) to 100 (complete control)
[6] = postemergence, 500 g ai/ha, visual rating, scale 0 (no effect) to 100 (complete control)
[7] = 125 g ai/ha, 0 to 100 scale, 0 is no effect, 100 is complete control
[8] = 125 g ai/ha, 0 is no effect, 100 is complete control
[9] = Postemergence, 500 g ai/ha, scale 0 (no effect) to 100 (complete control)
[10] = postemergence, 125 g ai/ha, scale 0 to 100
[11] = 500 g ai/ha, scale 0 to 100, 0 no effect, 100 complete control, preemergence
[12] = 125 g ai/ha, visual rating, scale 0 (no effect) to 100 (complete control), postemergence
[13] = postemergence, 500 g ai/ha, scale 0 to 100, 0 is no effect, 100 is complete control

CCn1nc(C(C)(C)C)cc1C(=O)Nc1cccc(C(C)=O)c1 [Compound 122]
40: Plant response rating, Velvetleaf (velvetleaf; [7]) | Oat, Wild plant response rating (wild oat; [6])
20: Barnyardgrass plant response rating (barnyardgrass [1]; [6]) | Plant response rating, Cocklebur (cocklebur; [7]) | Foxtail, Giant plant response rating (giant foxtail; [6]) | Plant response rating, Morningglory (morningglory; [7]) | Velvetleaf plant response rating (velvetleaf; [6])
70: Plant response rating, Cocklebur (cocklebur; [4]) | Cocklebur plant response rating (cocklebur; [5]) | Plant response rating, Morningglory (morningglory; [4]) | Plant response rating, Pigweed (pigweed; [7]) | Rice plant response rating (rice; visual rating, 13 to 15 days)
90: Plant response rating, Barnyardgrass (barnyardgrass [1]; [4]) | Cocklebur plant response rating (cocklebur; [6])
100: Plant response rating, Lambsquarters (lambsquarters; [4])
60: Plant response rating, Velvetleaf (velvetleaf; [4]) | Barnyardgrass plant response rating (barnyardgrass [3]; visual rating, 13 to 15 days)
80: Plant response rating, Barnyardgrass (barnyardgrass [1]; [7]) | Plant response rating, Foxtail, Giant (giant foxtail; [4]) | Plant response rating, Lambsquarters (lambsquarters; [7]) | Plant response rating, Pigweed (pigweed; [4]) | Sedge, Umbrella plant response rating ([2]; visual rating, 13 to 15 days) | Ducksalad plant response rating (ducksalad; visual rating, 13 to 15 days)
10: Corn plant response rating (corn; [5]) | Corn plant response rating (corn; [6]) | Foxtail, Giant plant response rating (giant foxtail; [5]) | Pigweed plant response rating (pigweed; [6]) | Velvetleaf plant response rating (velvetleaf; [5]) | Blackgrass plant response rating (blackgrass; [6]) | Wheat plant response rating (wheat; [6]) | Oat, Wild plant response rating (wild oat; [5])
0: Barnyardgrass plant response rating (barnyardgrass [1]; [5]) | Plant response rating, Corn (corn; [7]) | Lambsquarters plant response rating (lambsquarters; [5]) | Lambsquarters plant response rating (lambsquarters; [6]) | Morningglory plant response rating (morningglory; [5]) | Morningglory plant response rating (morningglory; [6]) | Pigweed plant response rating (pigweed; [5]) | Blackgrass plant response rating (blackgrass; [5]) | Wheat plant response rating (wheat; [5])
50: Plant response rating, Foxtail, Giant (giant foxtail; [7])
30: Plant response rating, Corn (corn; [4])

CCc1nn(C(C)C)nc1C(=O)Nc1cccc(C(=S)N(C)C)c1 [Compound 409]
100: Plant response rating (0 to 100 scale), Lambsquarters (lambsquarters; [8]) | Wheat plant response rating (wheat; [11])
40: Blackgrass plant response rating (blackgrass; [9])
70: Plant response rating (0 to 100 scale), Foxtail, Giant (giant foxtail; [8]) | Lambsquarters plant response rating (lambsquarters; [9]) | Morningglory plant response rating (morningglory; [9]) | Pigweed plant response rating (pigweed; [9]) | Rice plant response rating (rice) | Ducksalad plant response rating (ducksalad)
10: Plant response rating (0 to 100 scale), Cocklebur (cocklebur; [8]) | Cocklebur plant response rating (cocklebur; [9]) | Corn plant response rating (corn; [9]) | Blackgrass plant response rating (blackgrass; [10]) | Wheat plant response rating (wheat; [9]) | Oat, Wild plant response rating (wild oat; [9])
60: Plant response rating (0 to 100 scale), Morningglory (morningglory; [8])
50: Plant response rating (0 to 100 scale), Corn (corn; [8])
90: Plant response rating (0 to 100 scale), Barnyardgrass (barnyardgrass [1]; [8]) | Plant response rating (0 to 100 scale), Pigweed (pigweed; [8]) | Sedge, Umbrella plant response rating [2] | Barnyardgrass plant response rating (barnyardgrass [3])
20: Foxtail, Giant plant response rating (giant foxtail; [9])
0: Barnyardgrass plant response rating (barnyardgrass [1]; Postemergence, 125 g ai/ha, scale 0 (no effect) to 100 (complete control)) | Barnyardgrass plant response rating (barnyardgrass [1]; [9]) | Cocklebur plant response rating (cocklebur; [10]) | Corn plant response rating (corn; [10]) | Foxtail, Giant plant response rating (giant foxtail; [10]) | Morningglory plant response rating (morningglory; [10]) | Velvetleaf plant response rating (velvetleaf; [9]) | Velvetleaf plant response rating (velvetleaf; [10]) | Wheat plant response rating (wheat; [10]) | Oat, Wild plant response rating (wild oat; [10])
30: Lambsquarters plant response rating (lambsquarters; [10]) | Pigweed plant response rating (pigweed; [10]) | Plant response rating (0 to 100 scale), Velvetleaf (velvetleaf; [8])

CCc1nn(C(C)C)nc1C(=O)Nc1cccc(C(=O)N(C)CC)c1 [Compound 386]
40: Cocklebur plant response rating (cocklebur; [12]) | Plant response rating (0 to 100 scale), Corn (corn; [8]) | Velvetleaf plant response rating (velvetleaf; [12]) | Blackgrass plant response rating (blackgrass; [13])
0: Barnyardgrass plant response rating (barnyardgrass [1]; [12]) | Corn plant response rating (corn; [12]) | Blackgrass plant response rating (blackgrass; [12]) | Wheat plant response rating (wheat; [12]) | Wheat plant response rating (wheat; [9]) | Oat, Wild plant response rating (wild oat; [12]) | Oat, Wild plant response rating (wild oat; [9])
20: Plant response rating (0 to 100 scale), Cocklebur (cocklebur; [8]) | Foxtail, Giant plant response rating (giant foxtail; [12]) | Foxtail, Giant plant response rating (giant foxtail; [13]) | Morningglory plant response rating (morningglory; [12]) | Morningglory plant response rating (morningglory; [9])
60: Lambsquarters plant response rating (lambsquarters; [9]) | Pigweed plant response rating (pigweed; [9]) | Plant response rating (0 to 100 scale), Velvetleaf (velvetleaf; [8])
10: Barnyardgrass plant response rating (barnyardgrass [1]; [13]) | Corn plant response rating (corn; [13])
30: Lambsquarters plant response rating (lambsquarters; [12])
50: Cocklebur plant response rating (cocklebur; [13]) | Plant response rating (0 to 100 scale), Morningglory (morningglory; [8]) | Pigweed plant response rating (pigweed; [12]) | Velvetleaf plant response rating (velvetleaf; [9])
100: Plant response rating (0 to 100 scale), Lambsquarters (lambsquarters; [8]) | Plant response rating (0 to 100 scale), Pigweed (pigweed; [8]) | Wheat plant response rating (wheat; [11])
80: Rice plant response rating (rice) | Sedge, Umbrella plant response rating [2]
90: Plant response rating (0 to 100 scale), Barnyardgrass (barnyardgrass [1]; [8]) | Plant response rating (0 to 100 scale), Foxtail, Giant (giant foxtail; [8]) | Ducksalad plant response rating (ducksalad) | Barnyardgrass plant response rating (barnyardgrass [3])
